Source: patent US12616695B2, “Use of 5-amino-2,3-dihydro-1,4-phthalazinedione in the treatment of rare chronic inflammatory pulmonary diseases” (Metriopharm AG, priority 2020, dated 2026)
Where two headings read alike, the source gives them in different places.

System: cigarette smoke-induced 3-nitrotyrosine formation in the lung parenchyma
Details: for 3-nitrotyrosine stained surface area, mean ± SEM: n=5 mice, room air 0.24 ± 0.09, cigarette smoke + diluent 3.07 ± 0.39
Description: 5-amino-2,3-dihydro-1,4-phthalazinedione sodium salt Form I was tested in an isolated, ventilated and perfused mouse lung system that was stimulated with cigarette smoke.
The isolated, ventilated and perfused mouse lung system (ILU) is an established model for studying acute effects of various conditions and drugs on lung parenchyma and vasculature. It is mainly used for examining effects of hypoxia and for evaluating the efficacy of potential drugs on the hypoxic pulmonary vasoreaction (cf. Weissmann et al. (2006) Proc Natl Acad Sci USA 103: 19093-19098).
C57BL/6J mice (n=25, 5 per group; male/female, 3-6 months, 20-30 g; Charles River GmbH, Sulzfeld, Germany) were anesthetized with a ketamine (100 mg/kg body weight) and xylazine (20 mg/kg body weight) intraperitoneal injection (Ceva Tiergesundheit GmbH, Dusseldorf, Germany) containing heparin (50 I.E. heparin/g body weight; Ratiopharm GmbH, Ulm, Germany). The lungs and the heart were removed from the chest cavity and placed on the ILU system (see FIGS. 1A and 1B). Lungs were ventilated in an isolated chamber using normoxic gas (21% O2, 5% CO2, 74% N2; 150 breaths per minute at the PEEP (positive end-expiratory pressure) of 3 cm H2O) and perfused with a modified Krebs-Henseleit buffer (120.0 mM NaCl, 4.3 mM KCl, 1.1 mM KH2PO4, 2.4 mM CaCl2, 1.3 mM MgCl2, 13.14 mM glucose, 0.25 mM hydroxyethyl starch 200000/0.5, 25.0 mM NaHCO3 adjusted to a constant pH range of […] L-arginine; Serag-Wissner GmbH & Co. KG, Naila, Germany) at a temperature of 37° C. Lung weight, right and left ventricle pressure, as well as ventilatory pressure were monitored and recorded during the whole experimental procedure. After 5-10 minutes, when the lung was properly flushed and all the parameters were stable, 5-amino-2,3-dihydro-1,4-phthalazinedione sodium salt was applied by adding 150 μl of a stock solution to 15 ml of the circulating perfusion buffer. The substance was applied 10 minutes prior to the first cigarette smoke application. Cigarette smoke was applied via trachea while lung is perfused with the buffer containing 5-amino-2,3-dihydro-1,4-phthalazinedione sodium salt. Cigarette smoke was prepared freshly before each application, by burning one cigarette (research cigarettes 3R4F, University of Kentucky, USA) in one minute using normoxic gas at the flow of 11/min and collected in a 1 I glass bottle containing 5 g silica gel for removing the moist from the cigarette smoke. 50 ml of the cigarette smoke were taken via a syringe and applied to the lung via trachea (FIG. 1A) in deep breaths (periodic inflation for 3-4 s) over a period of 5 min. The application was done manually while carefully monitoring the inspiratory pressure to avoid damage of the lung. The cigarette smoke application was repeated three times with a 1 hour break in-between.
Five treatment groups (n=5, respectively) were investigated: • A: room air exposure • B: cigarette smoke+diluent (buffer solution) • C: cigarette smoke+0.5 mM 5-amino-2,3-dihydro-1,4-phthalazinedione sodium salt • D: cigarette smoke+1 mM 5-amino-2,3-dihydro-1,4-phthalazinedione sodium salt • E: cigarette smoke+2 mM 5-amino-2,3-dihydro-1,4-phthalazinedione sodium salt
5-amino-2,3-dihydro-1,4-phthalazinedione sodium salt Form I was dissolved in water for injection (vehicle) at the required concentrations described above. Stock solutions were prepared in water for injection. Further 1:100 dilutions were made with modified Krebs-Henseleit buffer (see above). Stock solutions were stored at −70° C. in appropriate aliquots. The required amount of stock solution was thawed, and the corresponding working solution was prepared for immediate use.
One hour after the third cigarette smoke application lungs were removed from the system and fixed by inflating with formalin solution (via trachea) at the pressure of 12-15 cm H2O for two hours at room temperature.

Nc1cccc2c(=O)[nH][nH]c(=O)c12.[Na] [5-amino-2,3-dihydro-1,4-phthalazinedione sodium salt]
effect on cigarette smoke induced 3-nitrotyrosine formation (in words) (0.5 mM in perfusion buffer (FIG. 2C)): moderate effect | effect on cigarette smoke induced 3-nitrotyrosine formation (in words) (1 mM in perfusion buffer (FIG. 2D)): almost completely abolished | effect on cigarette smoke induced 3-nitrotyrosine formation (in words) (2 mM in perfusion buffer (FIG. 2E)): almost completely abolished | 3-nitrotyrosine stained surface area, mean ± SEM (cigarette smoke + 0.5 mM in perfusion buffer): 2.24 ± 0.28 % area | 3-nitrotyrosine stained surface area, mean ± SEM (cigarette smoke + 1 mM in perfusion buffer): 0.72 ± 0.26 % area | 3-nitrotyrosine stained surface area, mean ± SEM (cigarette smoke + 2 mM in perfusion buffer): 0.37 ± 0.13 % area | cigarette smoke-induced 3-nitrotyrosine formation in the lung parenchyma, conclusion (in words) (pre-treatment 10 minutes prior to the first cigarette smoke application, ILU model): prevents cigarette smoke-induced 3-nitrotyrosine formation | ROS/RNS levels in cigarette smoke-stimulated mouse lung (in words) (summary over 0.5, 1 and 2 mM): dose-dependent reduction of ROS/RNS levels down to control levels
